pIC50: −log10 of the molar value.

The assay addresses T1, catalytic domain of MMP-13 enzyme (Homo sapiens, UniProt P45452).
T1 construct: stock solution of catalytic domain of MMP-13 enzyme; purchased Invitek (Berlin) 30100812
Nature of the assay: Assay for determining MMP-13 inhibition (fluorescent substrate). As to conditions: compounds named as lower than 100 nM. It is filed as biochemical. As to the method:
Assay for Determining MMP-13 Inhibition
The typical assay for MMP-13 activity is carried out in assay buffer comprised of 50 mM Tris, pH 7.5, 150 mM NaCl, 5 mM CaCl2 and 0.05% Brij-35. Different concentrations of tested compounds are prepared in assay buffer in 50 μL aliquots. 10 μL of a 50 nM stock solution of catalytic domain of MMP-13 enzyme (produced by Alantos or commercially available from Invitek (Berlin), Cat.# 30100812) is added to the compound solution. The mixture of enzyme and compound in assay buffer is thoroughly mixed and incubated for 10 min at room temperature. Upon the completion of incubation, the assay is started by addition of 40 μL of a 12.5 μM stock solution of MMP-13 fluorescent substrate (Calbiochem, Cat. No. 444235). The time-dependent increase in fluorescence is measured at the 320 nm excitation and 390 nm emission by automatic plate multireader. The IC50 values are calculated from the initial reaction rates.

Consider `O=C1COc2ccc(CNC(=O)c3cnc4ccccc4n3)cc2N1` [3/137], for which the negative-log IC50 (pIC50) is above 7.00. With `O=C1COc2ccc(CNC(=O)C3NC(=O)c4ccccc4N3)cc2N1` (centres unmarked) [Example 1/4] the figure was above 7.00.

The term pIC50 denotes the IC50 on a negative log10 scale, so that one unit is a factor of ten. A higher pIC50 goes with a low IC50.

These data come from US20080221093A1, “Metalloprotease inhibitors containing a heterocyclic moiety” (priority 2007, published 2008).
